In ChEMBL document CHEMBL5620406, “Synthesis and biological evaluation of novel pyrazole amides as potent mitochondrial complex I inhibitors” (Eur J Med Chem, 2023) one finds efflux ratio and Activity data, which are given here for two molecules.

Calls of active or inactive are those of the source. No cut-off for these calls is given here.

The nature of data set [1]: Efflux ratio of apparent permeability across basolateral to apical membrane to apical to basolateral membrane in human Caco-2 cells incubated for 120 mins by LC-MS/MS analysis. The format is ADME, cell-based. (Passage across Caco-2 layers is used to estimate intestinal permeability.)
The test system of data set [2] is HCT-116. Briefly: Antiproliferative activity against human HCT-116 cells assessed as inhibition of cell growth at 0.1 nM incubated for 96 hrs in presence of galactose by MTT assay. The format is functional, cell-based. On the technique in general: Tetrazolium assays rely on reduction of a dye to a coloured formazan, in cell work by metabolically active cells.
For data set [3], the system named is HCT-116. The experiment in a line: Induction of mitochondrial dysfunction in human HCT-116 cells assessed as inhibition of OXPHOS at 2 to 10 nM incubated for 24 hrs by Seahorse XFe24 analyzer. The format is functional, cell-based. As to conditions: dose 2-10 nM.
Data set [4] is described as follows: Toxicity in NOD-SCID mouse xenografted with human KG-1 cells assessed as effect on liver damage at 5 mg/kg, ip qd administered 5 consecutive days per week for 24 days by H and E staining based analysis. The format is organism-based. As to conditions: in vivo, 576 h, time 24 day. In general terms: Xenograft models place foreign cells or tissue in a host animal.

Data set [5] deals with HCT-116. The experiment in a line: Induction of mitochondrial dysfunction in human HCT-116 cells assessed as attenuation of oxygen consumption rate at 10 nM incubated for 24 hrs by Seahorse XFe24 analyzer. The format is functional, cell-based.
Data set [6] can be described thus: Acute toxicity in BALB/c mouse assessed as kidney damage at 40 to 68 mg/kg, ip measured on day 14 by H and E staining based analysis. To be noted: in vivo, 336 h, dose 40-68 mg/kg, time 14 day. The data set is classed as organism-based.
The nature of data set [7]: Acute toxicity in BALB/c mouse assessed as effect on RBC level at 68 mg/kg, ip measured on day 14. The data set is classed as organism-based, Erythrocyte. To be noted: in vivo, 336 h, time 14 day.
Data set [8] can be described thus: Toxicity in NOD-SCID mouse xenografted with human KG-1 cells assessed as effect on GLU level at 5 mg/kg, ip qd administered 5 consecutive days per week for 24 days. The data set is classed as organism-based. As to conditions: in vivo, 576 h, time 24 day.

The term efflux ratio denotes a quotient of directional permeabilities that is used to spot active efflux.

Consider `Cc1cc(C(=O)Nc2ccc(C(F)(F)F)cc2)nn1Cc1cccc(N2CCN(C(=O)C3CC3)CC2)c1`, for which the efflux ratio at 2 h in data set [1] stood at 0.53. The outcome with HCT-116 [2], in the data set with HCT-116 [3] and with HCT-116 [5] was Active. The Activity entry in data set [4], in data set [6], in data set [7] and in data set [8] was “Non-Toxic” each time.
For `Cc1cc(C(=O)Nc2ccc(OC(F)(F)F)cc2)nn1Cc1cccc(N2CCN(C(=O)C3CC3)CC2)c1`, in data set [1], the efflux ratio at 2 h worked out at 0.57. Moreover, the result in the data set on HCT-116 [2], with HCT-116 [3] and in the data set on HCT-116 [5] was Active. Besides, the Activity entry in data set [4], in data set [6], in data set [7] and in data set [8] was “Non-Toxic” each time.
